“And” between values parts separate entries of the source, which are not always exact repeats. Equal values may be shown once. Read-outs that look alike come from different tables or passages of the source.
What was measured:
[1] = biological target: human α3β2γ2 GABAA receptors (Homo sapiens, UniProt P18507+P34903+P47870); assay: submaximal GABA currents in Ltk cells; type: cell-based
[2] = tested on: Serotonin, 5HT4; assay: in vitro selectivity profile; type: binding; conditions: eslicarbazepine 400 μmol/L
[3] = tested on: GABA A, BDZ, alpha 5 site; assay: in vitro selectivity profile; type: binding; conditions: eslicarbazepine 400 μmol/L
[4] = tested on: Melatonin, nonselective; assay: in vitro selectivity profile; type: binding; conditions: eslicarbazepine 400 μmol/L
[5] = tested on: Serotonin, 5HT3; assay: in vitro selectivity profile; type: binding; conditions: eslicarbazepine 400 μmol/L
[6] = tested on: Potassium channel, ATP-sensitive; assay: in vitro selectivity profile; type: binding; conditions: eslicarbazepine 400 μmol/L
[7] = biological target: Serotonin, 5HT7 (h) (Homo sapiens, UniProt P34969); assay: in vitro selectivity profile; type: binding
Chain of Serotonin, 5HT7 (h) (P34969 whole entry): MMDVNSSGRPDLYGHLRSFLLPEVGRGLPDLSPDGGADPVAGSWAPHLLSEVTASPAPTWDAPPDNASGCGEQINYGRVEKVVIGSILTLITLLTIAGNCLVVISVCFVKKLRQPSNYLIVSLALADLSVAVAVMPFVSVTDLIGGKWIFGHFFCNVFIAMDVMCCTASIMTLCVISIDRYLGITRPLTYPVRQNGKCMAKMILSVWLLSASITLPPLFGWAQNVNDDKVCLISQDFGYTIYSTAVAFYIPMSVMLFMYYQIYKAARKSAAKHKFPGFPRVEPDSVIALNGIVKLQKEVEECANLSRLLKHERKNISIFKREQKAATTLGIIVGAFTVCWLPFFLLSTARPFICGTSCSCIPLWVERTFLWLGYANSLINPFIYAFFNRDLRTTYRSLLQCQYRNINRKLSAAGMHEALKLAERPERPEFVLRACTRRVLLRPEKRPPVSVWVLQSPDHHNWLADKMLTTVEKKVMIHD

[8] = biological target: Kinase, protein, MAPK3 (ERK1, P44MAPK) (h) (Homo sapiens, UniProt P27361); assay: in vitro selectivity profile; type: biochemical
Chain of Kinase, protein, MAPK3 (ERK1, P44MAPK) (h) (P27361 whole entry): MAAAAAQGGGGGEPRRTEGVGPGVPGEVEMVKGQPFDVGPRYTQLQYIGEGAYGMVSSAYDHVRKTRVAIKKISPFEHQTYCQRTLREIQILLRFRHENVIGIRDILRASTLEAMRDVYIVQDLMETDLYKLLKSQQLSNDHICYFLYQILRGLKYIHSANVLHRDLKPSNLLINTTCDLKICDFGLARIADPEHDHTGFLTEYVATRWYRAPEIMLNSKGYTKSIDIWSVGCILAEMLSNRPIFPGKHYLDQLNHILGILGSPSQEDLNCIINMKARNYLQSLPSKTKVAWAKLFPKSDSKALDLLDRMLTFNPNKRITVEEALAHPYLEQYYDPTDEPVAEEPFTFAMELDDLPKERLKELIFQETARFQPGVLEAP

[9] = biological target: Dopamine, D1 (h) (Homo sapiens, UniProt P21728); assay: in vitro selectivity profile; type: binding
[10] = biological target: Kinase, protein, MAPK1 (ERK2, p42mapk) (h) (Homo sapiens, UniProt P28482); assay: in vitro selectivity profile; type: biochemical
[11] = biological target: T1, human GlyRα3 glycine receptors (Homo sapiens, UniProt O75311); assay: submaximal glycine currents in CHO cells; type: cell-based
T1 sequence (O75311 34-464): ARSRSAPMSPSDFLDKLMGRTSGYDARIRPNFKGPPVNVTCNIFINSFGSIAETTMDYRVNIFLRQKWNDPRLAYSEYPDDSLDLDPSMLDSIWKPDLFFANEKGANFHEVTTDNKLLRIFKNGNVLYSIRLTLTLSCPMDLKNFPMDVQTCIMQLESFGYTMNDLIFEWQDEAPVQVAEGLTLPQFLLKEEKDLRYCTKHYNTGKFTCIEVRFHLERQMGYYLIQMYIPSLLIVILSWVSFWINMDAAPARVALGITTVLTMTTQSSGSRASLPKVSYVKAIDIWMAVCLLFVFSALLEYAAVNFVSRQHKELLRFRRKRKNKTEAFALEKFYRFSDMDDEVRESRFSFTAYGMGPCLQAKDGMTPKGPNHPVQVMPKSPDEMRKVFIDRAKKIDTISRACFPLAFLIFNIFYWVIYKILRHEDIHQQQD

[12] = biological target: Serotonin transporter (h) (Homo sapiens, UniProt P31645); assay: in vitro selectivity profile; type: binding
[13] = tested on: Glutamate, AMPA site; assay: in vitro selectivity profile; type: binding; conditions: eslicarbazepine 400 μmol/L
[14] = biological target: Serotonin, 5HT6 (h) (Homo sapiens, UniProt P50406); assay: in vitro selectivity profile; type: binding
[15] = cited from earlier work
[16] = tested on: GABA A, BDZ, alpha 1 site; assay: in vitro selectivity profile; type: binding; conditions: eslicarbazepine 400 μmol/L
[17] = biological target: Protease, caspase, CASP-10 (h) (Homo sapiens, UniProt Q92851); assay: in vitro selectivity profile; type: biochemical
[18] = biological target: Kinase, protein, SGK1 (h) (Homo sapiens, UniProt O00141); assay: in vitro selectivity profile; type: biochemical
[19] = biological target: Dopamine transporter (h) (Homo sapiens, UniProt Q01959); assay: in vitro selectivity profile; type: binding
Chain of Dopamine transporter (h) (Q01959 whole entry): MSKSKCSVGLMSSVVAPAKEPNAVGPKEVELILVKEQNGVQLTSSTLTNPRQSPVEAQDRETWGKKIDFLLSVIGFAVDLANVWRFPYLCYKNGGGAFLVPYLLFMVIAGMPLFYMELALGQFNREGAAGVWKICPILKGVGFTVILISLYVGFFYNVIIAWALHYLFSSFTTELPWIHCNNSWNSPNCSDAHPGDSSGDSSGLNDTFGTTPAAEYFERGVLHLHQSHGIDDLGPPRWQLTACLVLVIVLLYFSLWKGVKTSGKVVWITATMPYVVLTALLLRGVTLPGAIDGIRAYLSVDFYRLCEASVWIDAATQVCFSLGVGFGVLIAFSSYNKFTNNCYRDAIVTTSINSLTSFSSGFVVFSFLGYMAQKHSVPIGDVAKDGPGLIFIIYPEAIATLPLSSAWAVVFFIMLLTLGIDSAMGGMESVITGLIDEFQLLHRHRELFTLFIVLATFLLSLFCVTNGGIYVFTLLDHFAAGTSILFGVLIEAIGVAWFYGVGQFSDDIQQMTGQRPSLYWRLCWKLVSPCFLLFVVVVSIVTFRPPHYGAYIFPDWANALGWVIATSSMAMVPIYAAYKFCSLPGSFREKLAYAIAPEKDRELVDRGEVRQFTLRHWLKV

[20] = human plasma and CSF pharmacokinetics; type: in vivo; conditions: ESL 1200 mg once daily, protein binding 30%
[21] = tested on: Galanin, nonselective; assay: in vitro selectivity profile; type: binding; conditions: eslicarbazepine 400 μmol/L
[22] = tested on: Sigma 2; assay: in vitro selectivity profile; type: binding; conditions: eslicarbazepine 400 μmol/L
[23] = tested on: Glutamate, chloride-dependent site; assay: in vitro selectivity profile; type: binding; conditions: eslicarbazepine 400 μmol/L
[24] = biological target: human α5β2γ2 GABAA receptors (Homo sapiens, UniProt P18507+P31644+P47870); assay: submaximal GABA currents in Ltk cells; type: cell-based
Chain of human α5β2γ2 GABAA receptors (P31644 32-462): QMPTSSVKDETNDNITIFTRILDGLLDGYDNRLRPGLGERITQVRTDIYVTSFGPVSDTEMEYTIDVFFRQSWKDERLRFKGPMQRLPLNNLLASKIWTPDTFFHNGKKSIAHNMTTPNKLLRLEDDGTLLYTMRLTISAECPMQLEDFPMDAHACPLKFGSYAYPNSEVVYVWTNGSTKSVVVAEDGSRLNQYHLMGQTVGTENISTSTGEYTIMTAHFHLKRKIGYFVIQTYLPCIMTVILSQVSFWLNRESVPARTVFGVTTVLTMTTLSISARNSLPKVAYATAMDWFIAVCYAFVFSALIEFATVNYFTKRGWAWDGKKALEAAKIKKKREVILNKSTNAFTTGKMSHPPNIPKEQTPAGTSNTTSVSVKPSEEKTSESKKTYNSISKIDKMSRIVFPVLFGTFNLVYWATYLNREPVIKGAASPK
Chain of human α5β2γ2 GABAA receptors (P47870 25-512 limits assumed): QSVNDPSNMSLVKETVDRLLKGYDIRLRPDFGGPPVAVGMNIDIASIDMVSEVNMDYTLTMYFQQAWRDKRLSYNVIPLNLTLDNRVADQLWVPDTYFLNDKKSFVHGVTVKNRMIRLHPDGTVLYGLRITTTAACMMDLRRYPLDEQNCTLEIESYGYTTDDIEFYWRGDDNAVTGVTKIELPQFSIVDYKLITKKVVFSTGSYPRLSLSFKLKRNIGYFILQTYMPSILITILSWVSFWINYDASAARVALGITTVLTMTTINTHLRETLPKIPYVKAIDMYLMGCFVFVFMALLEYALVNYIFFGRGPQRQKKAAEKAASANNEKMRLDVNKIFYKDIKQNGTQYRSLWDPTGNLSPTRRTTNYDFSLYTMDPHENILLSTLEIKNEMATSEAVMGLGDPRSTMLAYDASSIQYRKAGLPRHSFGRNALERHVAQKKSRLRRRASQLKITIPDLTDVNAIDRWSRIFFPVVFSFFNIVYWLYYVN
Chain of human α5β2γ2 GABAA receptors (P18507 40-475): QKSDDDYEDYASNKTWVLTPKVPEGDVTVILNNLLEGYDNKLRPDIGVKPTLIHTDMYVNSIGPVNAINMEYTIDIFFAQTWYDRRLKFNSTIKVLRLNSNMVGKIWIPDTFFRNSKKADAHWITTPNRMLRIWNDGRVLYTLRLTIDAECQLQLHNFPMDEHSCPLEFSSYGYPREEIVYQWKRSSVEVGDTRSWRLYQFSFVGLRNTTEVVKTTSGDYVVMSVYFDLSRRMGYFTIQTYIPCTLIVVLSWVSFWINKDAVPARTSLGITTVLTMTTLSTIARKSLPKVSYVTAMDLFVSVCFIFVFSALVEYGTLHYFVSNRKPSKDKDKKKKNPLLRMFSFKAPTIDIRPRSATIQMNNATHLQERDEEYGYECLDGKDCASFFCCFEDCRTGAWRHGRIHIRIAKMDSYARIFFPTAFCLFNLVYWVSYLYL

[25] = biological target: Dopamine, D4.2 (h) (Homo sapiens, UniProt P21917, DEL265-296); assay: in vitro selectivity profile; type: binding
[26] = biological target: Kinase, protein, PKCz (h) (Homo sapiens, UniProt Q05513); assay: in vitro selectivity profile; type: biochemical
Chain of Kinase, protein, PKCz (h) (Q05513 whole entry): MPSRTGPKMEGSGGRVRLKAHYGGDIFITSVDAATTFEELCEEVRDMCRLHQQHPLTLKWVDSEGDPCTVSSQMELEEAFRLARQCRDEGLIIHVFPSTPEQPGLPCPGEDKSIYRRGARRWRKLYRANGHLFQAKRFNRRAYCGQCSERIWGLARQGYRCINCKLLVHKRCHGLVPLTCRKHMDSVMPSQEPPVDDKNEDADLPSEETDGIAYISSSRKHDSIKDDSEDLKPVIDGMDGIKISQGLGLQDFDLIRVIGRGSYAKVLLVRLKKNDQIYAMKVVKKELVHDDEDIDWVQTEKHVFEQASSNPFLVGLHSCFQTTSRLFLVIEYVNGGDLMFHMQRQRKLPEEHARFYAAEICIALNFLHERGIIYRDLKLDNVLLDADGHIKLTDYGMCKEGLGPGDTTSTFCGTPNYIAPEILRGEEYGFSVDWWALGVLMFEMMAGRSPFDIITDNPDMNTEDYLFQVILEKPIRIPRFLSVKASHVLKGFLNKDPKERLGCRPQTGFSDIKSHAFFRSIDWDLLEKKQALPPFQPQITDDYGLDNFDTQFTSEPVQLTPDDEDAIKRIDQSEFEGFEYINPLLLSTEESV

[27] = tested on: Histamine, H1; assay: in vitro selectivity profile; type: binding; conditions: eslicarbazepine 400 μmol/L
[28] = biological target: Neuropeptide, NPY2 (h) (Homo sapiens, UniProt P49146); assay: in vitro selectivity profile; type: binding
Chain of Neuropeptide, NPY2 (h) (P49146 whole entry): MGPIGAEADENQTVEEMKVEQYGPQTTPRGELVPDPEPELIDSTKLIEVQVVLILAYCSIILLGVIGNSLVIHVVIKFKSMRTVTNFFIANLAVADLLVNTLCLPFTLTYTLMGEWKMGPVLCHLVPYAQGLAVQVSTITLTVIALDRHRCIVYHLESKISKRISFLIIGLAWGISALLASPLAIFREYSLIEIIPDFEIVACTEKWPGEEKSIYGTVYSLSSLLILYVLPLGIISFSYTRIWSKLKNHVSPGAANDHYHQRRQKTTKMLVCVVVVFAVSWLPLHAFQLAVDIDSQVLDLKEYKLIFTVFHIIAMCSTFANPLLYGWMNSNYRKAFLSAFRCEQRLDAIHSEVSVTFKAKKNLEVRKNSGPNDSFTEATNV

[29] = tested on: Oxidase, MAO-B, central; assay: in vitro selectivity profile; type: biochemical; conditions: eslicarbazepine 400 μmol/L
[30] = tested on: Somatostatin, nonselective; assay: in vitro selectivity profile; type: binding; conditions: eslicarbazepine 400 μmol/L
[31] = tested on: Glutamate, kainate site; assay: in vitro selectivity profile; type: binding; conditions: eslicarbazepine 400 μmol/L
[32] = biological target: Anhydrase, carbonic, isozyme I (h) (Homo sapiens, UniProt P00915); assay: in vitro selectivity profile; type: biochemical
[33] = biological target: Serotonin, 5HT2A (h) (Homo sapiens, UniProt P28223); assay: in vitro selectivity profile; type: binding
Chain of Serotonin, 5HT2A (h) (P28223 whole entry): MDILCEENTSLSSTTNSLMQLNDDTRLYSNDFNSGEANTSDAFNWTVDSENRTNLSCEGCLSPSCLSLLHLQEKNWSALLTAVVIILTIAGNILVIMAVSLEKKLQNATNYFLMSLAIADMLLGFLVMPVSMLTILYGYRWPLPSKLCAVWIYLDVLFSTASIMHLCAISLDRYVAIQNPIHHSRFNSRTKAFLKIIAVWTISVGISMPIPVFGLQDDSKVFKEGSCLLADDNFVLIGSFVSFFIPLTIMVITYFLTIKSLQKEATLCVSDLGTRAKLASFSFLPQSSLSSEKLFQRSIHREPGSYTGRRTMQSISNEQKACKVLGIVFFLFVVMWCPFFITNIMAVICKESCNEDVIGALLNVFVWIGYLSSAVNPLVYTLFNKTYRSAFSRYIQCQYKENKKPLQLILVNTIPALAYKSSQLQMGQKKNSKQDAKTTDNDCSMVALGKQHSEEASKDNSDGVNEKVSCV

[34] = tested on: GABA A, agonist site; assay: in vitro selectivity profile; type: binding; conditions: eslicarbazepine 400 μmol/L
[35] = tested on: Purinergic, P2Y; assay: in vitro selectivity profile; type: binding; conditions: eslicarbazepine 400 μmol/L
[36] = tested on: Sodium, site 2; assay: in vitro selectivity profile; type: binding; conditions: eslicarbazepine 400 μmol/L
[37] = Amygdala kindling, ESL 200 mg/kg i.p., 15 min, ref Soerensen et al. ([2011])
[38] = Amygdala kindling, ESL 300 mg/kg i.p., 15 min, ref Soerensen et al. ([2011])
[39] = Corneal kindling, ESL 100 mg/kg i.p., 60 min, ref Pekcec et al. ([2011])
[40] = MES test, ESL 50 mg/kg p.o., 60 min, ref Pires et al. ([2011])

Chain of human α3β2γ2 GABAA receptors (P34903 29-492): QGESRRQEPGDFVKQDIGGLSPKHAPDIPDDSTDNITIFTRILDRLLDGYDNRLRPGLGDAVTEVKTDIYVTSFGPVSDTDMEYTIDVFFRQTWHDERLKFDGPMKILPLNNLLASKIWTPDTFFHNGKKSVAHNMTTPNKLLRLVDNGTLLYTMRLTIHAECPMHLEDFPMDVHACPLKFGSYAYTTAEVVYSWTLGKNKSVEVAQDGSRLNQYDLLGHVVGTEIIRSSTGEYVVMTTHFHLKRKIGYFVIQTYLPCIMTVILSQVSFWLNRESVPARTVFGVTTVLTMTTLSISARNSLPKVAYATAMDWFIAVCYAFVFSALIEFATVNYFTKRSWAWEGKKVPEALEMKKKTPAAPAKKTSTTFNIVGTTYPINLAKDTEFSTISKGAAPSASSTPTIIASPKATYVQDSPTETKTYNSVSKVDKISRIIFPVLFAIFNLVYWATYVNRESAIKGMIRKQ
Chain of human α3β2γ2 GABAA receptors (P47870 25-512 limits assumed): as the sequence (P47870 25-512 limits assumed) above
Chain of human α3β2γ2 GABAA receptors (P18507 40-475): as the sequence (P18507 40-475) above

SMILES: NC(=O)N1c2ccccc2C[C@H](O)c2ccccc21 [eslicarbazepine]
- GABA inward current stimulation, α3β2γ2, Mean ± SEM ([1]; 50 μmol/L): 95.6 ± 4.8
- GABA inward current stimulation, α3β2γ2, Mean ± SEM ([1]; 100 μmol/L): 97.9 ± 4.2
- GABA inward current stimulation, α3β2γ2, Mean ± SEM ([1]; 250 μmol/L): 96.4 ± 2.2
- GABA inward current stimulation, α3β2γ2, Mean ± SEM ([1]; 500 μmol/L): 91.6 ± 5.6
- effect on submaximal α3β2γ2 GABA currents ([1]; 50–500 μmol/L): did not significantly change submaximal GABA currents
- % inhibition [2]: 7.38%
- % inhibition [3]: 23.75%
- % inhibition [4]: 17.43%
- % inhibition [5]: 10.41%
- % inhibition [6]: 6.78%
- inhibition at 400 µM [7]: 0%
- inhibition at 400 µM [8]: 2.05%
- inhibition at 400 µM [9]: 6.85%
- inhibition at 400 µM [10]: 0%
- IC50 [11]: 1190 µM
- inhibition at 400 µM [12]: 0%
- % inhibition [13]: 0.0%
- inhibition at 400 µM [14]: 5.86%
- Brain (whole volume) Eslicarbazepine [15, 37]: 37.5 nmol/g
- Plasma eslicarbazepine [15, 37]: 236.2 µmol/L
- Brain (whole volume) Eslicarbazepine [15, 38]: 58.7 nmol/g
- Plasma eslicarbazepine [15, 38]: 282.8 µmol/L
- Brain (whole volume) Eslicarbazepine [15, 39]: 67.7 nmol/g
- Plasma eslicarbazepine [15, 39]: 168.1 µmol/L
- Brain (whole volume) Eslicarbazepine [15, 40]: 22 nmol/g and 22.0 nmol/g
- Plasma eslicarbazepine [15, 40]: 32 µmol/L and 31.5 µmol/L
- % inhibition [16]: 25.92%
- inhibition at 400 µM [17]: 0%
- inhibition at 400 µM [18]: 5.7%
- inhibition at 400 µM [19]: 2.85%
- eslicarbazepine-free drug, peak plasma [20]: 63 µmol/L
- % inhibition [21]: 6.11%
- % inhibition [22]: 6.11%
- % inhibition [23]: 9.36%
- GABA inward current stimulation, α5β2γ2, Mean ± SEM ([24]; 50 μmol/L): 95.2 ± 2.2
- GABA inward current stimulation, α5β2γ2, Mean ± SEM ([24]; 100 μmol/L): 93.9 ± 0.6
- GABA inward current stimulation, α5β2γ2, Mean ± SEM ([24]; 250 μmol/L): 93.5 ± 1.8
- GABA inward current stimulation, α5β2γ2, Mean ± SEM ([24]; 500 μmol/L): 89.7 ± 3.4
- effect on submaximal α5β2γ2 GABA currents ([24]; 50–500 μmol/L): did not significantly change submaximal GABA currents
- inhibition at 400 µM [25]: 0%
- inhibition at 400 µM [26]: 1.48%
- % inhibition [27]: 23.23%
- inhibition at 400 µM [28]: 8.43%
- % inhibition [29]: 0.95%
- % inhibition [30]: 0.0%
- % inhibition [31]: 1.56%
- inhibition at 400 µM [32]: 27.7%
- inhibition at 400 µM [33]: 19.2%
- % inhibition [34]: 0.0%
- % inhibition [35]: 0.0%
- % inhibition [36]: 34.46%
